Reference: patent US12240811B2, “N-heterocyclic five-membered ring-containing capsid protein assembly inhibitor, pharmaceutical composition and uses thereof” (CHIA TAI TIANQING PHARMACEUTICAL GROUP CO., LTD., priority 2019, dated 2025)

Key:
CYP 2D6 = CYP 2D6 (Homo sapiens (Human), UniProt P10635); test: CYP450 enzyme inhibition study, CYP 2D6; assay type: in vitro ADME
Protocol: 500 μL of a final incubation system contains 50 μL of human liver microsomes (protein concentration: 0.2 mg/mL, Corning), 1 μL of mixed CYP450 specific substrates (CYP1A2, CYP 2B6, CYP 2C9, CYP2C19, CYP 2D6, and CYP 3A4), 398 μL PBS buffer (pH7.4), 1 μL specific positive inhibitor (positive control group) or the test compound (formulated with acetonitrile), and 50 μL NADPH+MgCl2. Duplicate incubation systems of 0.5 mL each were formulated for each CYP450 subtype. A total volume of 450 μL of a uniformly mixed solution of the substrate and the enzyme was formulated in each tube, and the solution and NADPH were pre-incubated at 37° C. for 5 minutes, respectively. Then 50 μL of the mixed solution of NADPH+MgCl2 was added for reaction. 50 μL of the reaction solution was taken out at 30 minutes, and the reaction was terminated with 300 μL of ice acetonitrile containing an internal standard. In addition, two control groups of 500 μL each without NADPH were prepared in parallel as a negative control group.
(§1) Sample pre-treatment: To 50 μL of the incubated sample was added 300 μL of ice acetonitrile containing an internal standard, and then precipitated. After vortexing for 5 minutes, the sample was centrifugated (12000 rpm, 4° C.) for 10 minutes. 75 μL of the supernatant was pipetted, and 75 μL of ultrapure water was added thereto for dilution and mixed uniformly. […]

[1] = In vitro cytotoxicity (CCK-8); assay type: cell-based; details: human, HepG2.2.15 cells
Protocol: A bottle of HepG2.2.15 cells (Wuhan Institute of Virology) in good exponential growth state was taken, washed once by adding 5 mL PBS, and then thereto was added 2 mL trypsin. The sample was digested in a cell culture incubator, and taken out from time to time and observed under a microscope. When the cells just fell off, 1 mL trypsin was discarded. The residual liquid was placed in a cell culture incubator at 37° C. and digested for 8-15 min. The cells were taken out and observed under a microscope (whether the cells were individually round and there was no adhesion between the cells). 5 mL MEM medium was added for cell resuspension. The cells were then subjected to cell counting with a cell counter, diluted with a complete medium, and adjusted to a cell density of 2*10^5 cells/mL. Then the cells were seeded at 100 μL/well in a 96-well plate with a multi-channel pipette (the 96-well plate was coated with 50 μg/mL Collagen I solution in advance), and cultured in a constant temperature CO2 incubator for 24 h. The cells were treated by drug administration, and fresh medium containing the compound was used to replace the spent medium every 3 days. […] After 1 to 2 hours, the absorbance was detected with microplate reader at 450 nm, and the inhibition rate and the CC50 were calculated.

[2] = Plasma protein binding assay, human plasma; assay type: in vitro ADME
Protocol: Formulation of plasma sample: 495 μL of blank plasmas of the corresponding species (mouse, rat, dog, monkey, and human) were drawn respectively, and thereto was added 5 μL of the corresponding test compound solution or positive control to give plasma sample solutions having a plasma drug concentration of the compound of 1 μM, and 10 μM, respectively (formulated with acetonitrile).
The pre-treated dialysis membrane was placed in a high-throughput equilibrium dialysis device, and 100 μL of the plasma sample solution and PBS buffer solution were drawn and added respectively to both sides of the dialysis membrane (sample side and buffer side) (n=3). After the equilibration device was sealed with a film, it was incubated at 37° C. overnight (100 rpm). After dialysis equilibrium was reached, 50 μL samples were drawn from the sample side and the buffer side, respectively, and the reaction was terminated by adding ice acetonitrile containing an internal standard.
as §1, with “plasma-side” for “incubated”, “450” for “300”, “uniformly. 1 μL of the resulting solution was injected for analysis.” for “uniformly.”

HBV DNA in serum = test: pAAV/HBV mouse model; assay type: in vivo, C57BL/6 mice; details: 3 mpk intragastric once daily
Protocol: 6-8 week old male C57BL/6 mice (Shanghai Lingchang Biotechnology Co., Ltd.) were used, and each mouse was injected with purified recombinant plasmid pAAV/HBV1.2 ([…]) dissolved in PBS equivalent to a volume of about 10% of its body weight through the tail vein within 3-8 s. Blood was collected from the orbits of the mice at 3 days after the plasmid injection to detect serum HBV DNA. The model mice having uniform serum DNA were selected and divided into: a model control group, a vehicle control group, and a test substance group. Mice in each group were continuously administered intragastrically once daily for 10 days at a dose of 3 mg/kg. The mouse serum was taken on day 0, 4, 7, and 10 after the administration, and the mice were sacrificed on day 10 to take liver tissue samples. The HBV DNA copy numbers in serum and liver of the mice were detected by fluorescent quantitative PCR method.

Sequence of CYP 2D6 (P10635 whole entry): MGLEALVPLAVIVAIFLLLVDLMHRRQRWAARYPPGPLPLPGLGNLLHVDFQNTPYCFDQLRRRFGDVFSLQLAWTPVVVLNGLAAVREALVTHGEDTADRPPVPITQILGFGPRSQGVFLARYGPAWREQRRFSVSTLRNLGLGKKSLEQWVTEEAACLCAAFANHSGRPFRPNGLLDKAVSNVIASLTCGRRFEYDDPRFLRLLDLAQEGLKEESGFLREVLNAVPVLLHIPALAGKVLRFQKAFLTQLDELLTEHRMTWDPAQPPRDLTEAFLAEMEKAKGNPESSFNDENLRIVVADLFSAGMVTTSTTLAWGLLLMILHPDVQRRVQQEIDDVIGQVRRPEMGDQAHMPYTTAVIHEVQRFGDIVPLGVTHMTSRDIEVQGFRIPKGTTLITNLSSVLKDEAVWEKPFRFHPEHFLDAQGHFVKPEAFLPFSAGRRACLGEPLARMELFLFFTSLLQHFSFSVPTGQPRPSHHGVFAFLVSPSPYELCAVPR

**Q.** What does the source list for `Cc1[nH]c(C(=O)C(=O)N[C@@H](C)C(F)(F)F)c(C)c1C(=O)Nc1ccc(F)c(C#N)c1` [Example 1, (S)—N-(3-cyano-4-fluorophenyl)-2,4-dimethyl-5-(2-oxo-2-((1,1,1-trifluoroprop-2-yl)amino)acetyl)-1H-pyrrole-3-carboxamide]?
**A.** IC50 (CYP 2D6): 54 µM; CC50 at 6 days [1]: > 100 µM; Binding rate (%) Human ([2]; 1 μM): 97.3%; Binding rate (%) Human ([2]; 10 μM): 97.3%; Reduction levels (log10) of HBV DNA in serum, Day 4 (HBV DNA in serum; Day 4): 2.95 log10; Reduction levels (log10) of HBV DNA in serum, Day 7 (HBV DNA in serum; Day 7): 4.13 log10; Reduction levels (log10) of HBV DNA in serum, Day 10 (HBV DNA in serum; Day 10): 2.71 log10
